Experimental data: ChEMBL document CHEMBL1145718, “Two new nitrogenous sesquiterpenes from the sponge Axinyssa aplysinoides” (1997)

Columns and labels:
Type in all cases: functional
[1] = test system: Saccharomyces cerevisiae; assay: DNA damaging activity against DNA repair-deficient delta RAD52 mutant yeast assessed as drug level required to produce 12 mm zone of inhibition assessed per 100 uL
[2] = test system: Saccharomyces cerevisiae; assay: DNA damaging activity against wild type yeast assessed as drug level required to produce 12 mm zone of inhibition assessed per 100 uL
[3] = test system: Saccharomyces cerevisiae; assay: DNA damaging activity against DNA repair-deficient delta RAD52/delta TOP1 mutant yeast assessed as drug level required to produce 12 mm zone of inhibition assessed per 100 uL

Structure (SMILES) | IC12 [1] [µg] | IC12 [2] [µg] | IC12 [3] [µg]
CC(C)[C@@H]1C[C@@H]2C(C)(NC(=O)NCCc3ccccc3)[C@H]3C[C@@H]1C[C@]2(C)C3 (stereo partly specified) | 45 | 14 | 12
CC(C)[C@@H]1C[C@@H]2C(C)(NC=O)[C@H]3C[C@@H]1C[C@]2(C)C3 (stereo partly specified) | 51 | 31 | 4.8
